According to patent US20120035224A1, “Betulin derived compounds as anti-feedants for plant pests” (priority 2006, published 2012):
Marks after values point to notes of the source that are not given here.

Columns and labels:
Type in all cases: in vivo
[1] = test system: cabbage white, Mamestra brassicae larvae; test: Antifeedant activity on cabbage leaf discs, no-choice test; settings: for Leaf mass eaten by the larvae vs. control, Time/0 h: 100 μg/cm^2, 0 h after treatment; for Leaf mass eaten by the larvae vs. control, Time/21 h: 100 μg/cm^2, 21 h after treatment; for Leaf mass eaten by the larvae vs. control, Time/43 h: 100 μg/cm^2, 43 h after treatment; for Leaf mass eaten by the larvae vs. control, Time/73 h: 100 μg/cm^2, 73 h after treatment; for antifeedant activity on the larvae: FIG. 2, no-choice test
Procedure: Antifeedant activity for the […], Mamestra brassicae larvae was tested with six compounds derived from betulin. Discs cut from cabbage leaves, having a diameter of 5 cm, were placed on petridishes and treated with the test agents in an amount of 100 μg/cm^2. One small larva was introduced on each plate. Each agent was tested in 10 parallel studies. Cabbage leaf mass remaining on the dish was weighed after 0, 21, 43 and 73 hours after treatment (hat), and leaf mass eaten by the larva was calculated as percentage based on the control.

[2] = test system: Deroceras agreste (field snails) and Deroceras reticulatum (false field snails); test: Effect on feeding behaviour of snails, half-treated leaf discs; settings: for ranking of snail test results: 100 μg/cm^2; for Percentage of the leaf half treated with the test substance vs. total mass eaten: treated half of leaf disc; for Percentage of the leaf half treated with the test substance vs. total mass eaten / Percentage of the control vs. total mass eaten: 36 hours, 100 μg/cm^2 in acetone; for Percentage of the control vs. total mass eaten: untreated half of leaf disc
Procedure: Deroceras agreste (field snails) and Deroceras reticulatum (false field snails) snails with lengts of about 2 cm, collected from nature, were used in this antifeedant test. Cabbage and lettuce leaves cut into discs with diameters of 4 cm serving as feed plants were placed on petridishes. Half on each leaf disc was treated with the test substance, the other haft serving as the control. One snail was placed on each plate, and only tests where the snail ate the leaf were assayed. The results were recorded at 36 hours after test initiation. Acetone was used as control, while betulin, betulinic acid, betulonic acid and betulin 28-carboxymethoxy mentholester dissolved in aceton served as test substances. The leaves studied were treated with test substances used in amounts of 100 μg/cm^2, The results from this test are presented in the following table 5.

[3] = test system: cabbage white, Mamestra brassicae larvae; test: Antifeedant activity on cabbage leaf discs, no-choice test; settings: FIG. 3, small larvae (12 to 19 mg), weight after 7 hours vs initial weight
[4] = test system: rapeseed beetles of the genus Phyllotreta spp.; test: Antifeedant activity for rapeseed beetles on rapeseed seedlings (palatability test); settings: for % Surface area of the leaves eaten: 100 μg/cm^2 in rapeseed oil on rapeseed seedlings, after one week, rapeseed oil=100%; for prevention of beetle feeding: 100 μg/cm^2, FIG. 1 and table 3
Procedure: Antifeedant activity for rapeseed beetles of the genus Phyllotreta spp. was tested using betulin 3,28-O-isostearylic diester (prepared as described in example 10), 3,28-diacetoxy betulin (prepared in example 15a), and betulin. Test compounds dissolved in 2 ml of rapeseed oil were sprayed on rapeseed seedlings at the cotyledon stage in an amount of 100 μg/cm^2. The plants thus treated were placed in an insect cage, followed by the introduction of the beetles after 24 hours. In the tests, 20 beetles were used per cage, each cage comprising 3 petridishes with seedlings, one control dish and two different test dishes, the number of the cages (=parallel tests) being 5. Pure rapeseed oil was used as the control. The beetles were allowed free access to all plants, and after one week, the test was stopped, the plants were examined, and feeding damages caused by the beetles were evaluated.
Number of the damaged leaves and the degree of damage were evaluated (% leaf surface area fed, palatability assessment).
Betulin 20,29-epoxy-3β,28-diacetate was used as the control compound, prepared as disclosed in J. Arg. Food Chem. 1995, 43, 2513-2516.

[5] = test system: strawberry beetles (Galerucella tenella); test: Palatability and egg laying selection test on strawberry leaves
Procedure: Antifeedant activity of betulin and betulonic acid was tested for strawberry beetles (Galerucella tenella) with adults and larvae using leaves of the plants. The test substances were dissolved in ethanol, and the leaves were treated to achieve a concentration of approx. 100 μg/cm^2 of the test substance. The experiment was carried out as a selection test on a petridisc containing a strawberry leaf having one half treated with the test substance and the other half treated with ethanol only. Two adult strawberry beetles (Galerucella tenella) were placed on the disc (male and female) or two larvae. The number of cavities eaten by the animals were counted daily during four days; simultaneously the number eggs laid by the adults were counted. Both the adults and the larvae had 10 tests. Results from the palatability test and the prevention of egg laying test with strawberry beetles (Galerucella tenella) are shown in the following table 6.

[6] = test system: lily beetles (Lilioceris lilii) adults; test: Palatability and egg laying selection test with adults on brown lily leaves; settings: for Percentage of the eaten relative mass of the leaf: selection test, approx. 100 μg/cm^2, four days, ethanol control 76.4
Procedure: (§1) Antifeedant activity of betulin and betulonic acid was tested for lily beetles (Lilioceris lilii) with adults and larvae using leaves of brownlily plants. The test substances were dissolved in ethanol, and the leaves were treated to achieve a concentration of approx. 100 μg/cm^2 of the test substance. The experiment was carried out with adults as a selection test on a petridisc containing two leaves cut from a brown lily plant. One was treated with the test substance and the other treated with ethanol only. Two adult lilybeetles (Lilioceris lilii) were placed on the disc (male and female). The leaf mass eaten by the animals was counted daily during four days by weighing the leaves; simultaneously the number eggs laid by the adults were counted. 10 parallel tests were performed. The test with larvae was a no-choise-test, where either a treated or untreated leaf of brownlily and one beetle larvae was placed on each disc. 7 parallel tests were performed. Results from the palatability test and the prevention of egglaying test with adults and larvae of lily beetles (Lilioceris lilii) are shown in the following table 7. […] Betulonic acid decreased very efficiently egglaying of adults on the leaves (more than 90%). Betulonic acid decreased feeding of larvae efficiently (92%), with betulin this was not observed. In a no-choise situation the larvae died on the betulonic acid treated leaves, in other test treatments they grew normally.

[7] = test system: lily beetles (Lilioceris lilii) larvae; test: No-choice feeding test with larvae on brown lily leaves; settings: for decrease of feeding of larvae / Percentage of the eaten relative mass of the leaf: larvae; for Percentage of the eaten relative mass of the leaf: no-choice test, approx. 100 μg/cm^2, ethanol control 65.3
Procedure: as §1

[8] = larvae, approx. 100 μg/cm^2, four days, ethanol = 100
[9] = adults, approx. 100 μg/cm^2, four days, ethanol = 100

Compound | Leaf mass eaten by the larvae vs. control, Time/0 h [1] [%] | Leaf mass eaten by the larvae vs. control, Time/21 h [1] | Leaf mass eaten by the larvae vs. control, Time/43 h [1] | Leaf mass eaten by the larvae vs. control, Time/73 h [1] [%] | ranking of snail test results [2] | Percentage of the leaf half treated with the test substance vs. total mass eaten [2] [%] | Percentage of the control vs. total mass eaten [2] [%] | % Surface area of the leaves eaten [4] [%] | further results
3,28-C18 alkylene succinic diester of betulin | 100 | 93% | 90% | 77 | – | – | – | – | –
C=C(C)[C@@H]1CC[C@]2(C(=O)O)CC[C@]3(C)C(CCC4[C@@]5(C)CC[C@H](O)C(C)(C)C5CC[C@]43C)C12 (stereo partly drawn) [Betulinic acid, betulinic acid] | 100 | 46% | 67% | 80 | Best results | 37.6 | 62.4 | – | weight development of the larvae [3]: lower than the initial weight; antifeedant activity on the larvae [1]: clearly had antifeedant activities
C=C(C)[C@@H]1CC[C@]2(COC(C)=O)CC[C@]3(C)C(CCC4[C@@]5(C)CC[C@H](OC(C)=O)C(C)(C)C5CC[C@]43C)C12 (stereo partly drawn) [3,28-diacetoxy betulin] | – | – | – | – | – | – | – | 96 | –
C=C(C)[C@@H]1CC[C@]2(CO)CC[C@]3(C)[C@H](CC[C@@H]4[C@@]5(C)CC[C@H](O)C(C)(C)[C@@H]5CC[C@]43C)[C@@H]12 [Betulin, lup-20(29)-ene-3β,28-diol] | 100 | 101* % | 193* % | 88 | – | 22.5 | 77.5 | 58 | prevention of beetle feeding [4]: efficiently prevented beetle feeding; prevention of feeding ([5]; larvae): 78%; Percentage of the relative number of eaten cavities [5, 8]: 21.9%; prevention (decrease) of feeding [6]: approx. 47%; Percentage of the eaten relative mass of the leaf [6]: 40.7%; decrease of feeding of larvae [7]: not observed; Percentage of the eaten relative mass of the leaf [7]: 64.2%
CC(=O)OCC12CCC(C3(C)CO3)C1C1CCC3C4(C)CCC(OC(C)=O)C(C)(C)C4CCC3(C)C1(C)CC2 (stereo not drawn) [Betulin 20,29-epoxy-3β,28-diacetate, reference compound] | – | – | – | – | – | – | – | 50 | –
28-C18 alkylene succinic ester of betulin | 100 | 103* % | 82% | 71 | – | – | – | – | antifeedant activity on the larvae [1]: clearly had antifeedant activities
C=C(C)[C@@H]1CC[C@]2(C(=O)O)CC[C@]3(C)C(CCC4[C@@]5(C)CCC(=O)C(C)(C)C5CC[C@]43C)C12 (stereo partly drawn) [Betulonic acid, betulonic acid] | 100 | 94% | 95% | 86 | Best results | 25.8 | 74.2 | – | prevention of feeding ([5]; adults): approx. 41%; prevention of laying of eggs on the leaves ([5]; adults): more than 90%; Percentage of the number or eggs laid by the females on the leaves [5, 9]: 8.3%; Percentage of the relative number of eaten cavities [5, 9]: 58.7%; prevention of feeding ([5]; larvae): 82%; Percentage of the relative number of eaten cavities [5, 8]: 17.8%; decrease of egglaying of adults on the leaves [6]: more than 90%; prevention (decrease) of feeding [6]: approx. 78%; Percentage of the number or eggs laid by the beetles ([6]; approx. 100 μg/cm^2, ethanol control = 100): 8.7%; Percentage of the eaten relative mass of the leaf [6]: 17.0%; decrease of feeding of larvae [7]: 92%; Percentage of the eaten relative mass of the leaf [7]: 5.2%; fate of larvae on treated leaves ([7]; no-choice situation): died
3,28-O-isostearylic acid diester of betulin [Betulin 3,28-O-isostearylic acid diester] | – | – | – | – | – | – | – | 64 | prevention of beetle feeding [4]: efficiently prevented beetle feeding
C=C(C)[C@@H]1CC[C@]2(COC(=O)CO[C@H]3C[C@@H](C)CC[C@@H]3C(C)C)CC[C@]3(C)C(CCC4[C@@]5(C)CC[C@H](O)C(C)(C)C5CC[C@]43C)C12 (stereo partly drawn) [betulin 28-carboxymethoxy menthol ester, 28-carboxymethoxy mentholester of betulin] | 100 | 126* % | 146* % | 94 | Best results | 36.6 | 63.4 | – | –
